Earlier results on one substance are cited in US20050020810A1, “Peptides which target tumor and endothelial cells, compositions and uses thereof” (priority 2002, published 2005).

One series deals with MatLyLu cells. Particulars: rat model.
For a further series, the system named is CT26 colon cancer. Particulars: in combination with 5-FU infusion.

With Ac—PHSCN—NH2, in the series on MatLyLu cells, the “metastasis of MatLyLu cells” value was “completely inhibits”. The survival result in the series on CT26 colon cancer is on record as “improved survival”. Moreover, in the series on DU145, the DU145 invasion result was “completely inhibits”.
